Test results: paper PMC6733935, “A convenient and efficient total solid-phase synthesis of DOTA-functionalized tumor-targeting peptides for PET imaging of cancer” (EJNMMI Research, 2019)
Square brackets hold non-standard residues; d marks the D form. Peptide text beside a SMILES is read from it. * marks the point of attachment. DOTA = O=C(O)CN1CCN(CC(=O)O)CCN(CC(=O)*)CCN(CC(=O)O)CC1; Cha = N[C@@H](CC1CCCCC1)C(=O)O; 4Abz = Nc1ccc(C(=O)O)cc1; Nle = CCCC[C@H](N)C(=O)O; Ahx = NCCCCCC(=O)O

Assays:
[1] = biological target: T1, BN/GRP receptor-positive PC3 human prostate cancer cells (Homo sapiens, UniProt P30550); assay: Saturation binding assay on PC3 cells; conditions: n = 3-5 experiments; for Bmax (apparent number of binding sites per cell): SD < 15%; for Kd: ~300,000 cells, 0.1-25 nM radiopeptide, 60 min, room temperature, mean ± SD
T1 construct: BN/GRP receptor-positive MDA-MB-231, MCF7, T47D human breast cancer, and PC3 human prostate cancer lines; host or cells: MDA-MB-231, MCF7, T47D (human breast cancer), PC3 (human prostate cancer); intact cells
Method: (§1) The cell binding of ^68Ga-radiolabeled peptides into BN/GRP receptor-positive MDA-MB-231, MCF7, T47D human breast cancer, and PC3 human prostate cancer lines (American Type Culture Collection, Rockville, MD, USA) was performed according to the method described previously. In brief, ∼ 300,000 cells (in 300 μL in low-serum media) were incubated with various amounts of radiopeptides, ranging between 0.1 and 25 nM of peptide (prepared from the serial dilutions of HPLC-purified radiopeptides), in duplicate for 60 min at room temperature. The initial concentrations of ^68Ga-labeled peptides were determined according to a well-established HPLC technique with simultaneous detection by UV absorbance. As the amount of BN peptide in the reaction mixture was too small to be detected by UV absorption at 220 nm, the radioactive peptide chromatograms from the HPLC analysis were compared (with UV chromatograms) with those of known concentrations of the corresponding nonradioactive peptides for the mass determination. Incubation was terminated by dilution with cold saline (300 μL) and the cells were pelleted by centrifugation. The cell pellets was then rapidly washed with cold saline to remove any unbound peptide and centrifuged to collect supernatants. Radioactivity in the cell pellet and the washings was measured in a γ-counter. Non-specific binding was determined in the presence of ~ 200-fold molar excess of unlabeled BN peptide. Specific binding is calculated by subtracting the non-specifically bound radioactivity from that of the total binding. The dissociation constant (Kd) was calculated using a plot of cell bound activity versus the concentration of the radioligand using GraphPad Prism software (GraphPad Software Inc., San Diego, CA, USA).

[2] = biological target: T2, BN/GRP receptor-positive MDA-MB-231 human breast cancer cells (Homo sapiens, UniProt P30550); assay: Saturation binding assay on MDA-MB-231 cells; conditions: n = 3-5 experiments; for Bmax (apparent number of binding sites per cell): SD < 15%; for Kd: ~300,000 cells, 0.1-25 nM radiopeptide, 60 min, room temperature, mean ± SD
T2 construct: BN/GRP receptor-positive MDA-MB-231, MCF7, T47D human breast cancer, and PC3 human prostate cancer lines; host or cells: MDA-MB-231, MCF7, T47D (human breast cancer), PC3 (human prostate cancer); intact cells
Method: as §1

[3] = assay type: physicochemical
Method: For lipophilicity determination, each HPLC-purified radiopeptide (~ 20 μL, ∼ 25 μCi) was added into a glass tube containing an equal volume mixture of n-octanol and water (1 mL each). The samples were vigorously vortexed for 5 min and subsequently centrifuged (5000 rpm, 5 min) to yield two immiscible layers. Duplicate samples (100 μL) from each layer were carefully taken (to avoid cross-contamination between the layers) for radioactivity measurement using a γ-counter. Partition coefficient was determined by the function: partition coefficient = Log10 (radioactivity in octanol layer/radioactivity in aqueous layer).

[4] = biological target: T3, BN/GRP receptor-positive T47D human breast cancer cells (Homo sapiens, UniProt P30550); assay: Saturation binding assay on T47D cells; conditions: n = 3-5 experiments; for Bmax (apparent number of binding sites per cell): SD < 15%; for Kd: ~300,000 cells, 0.1-25 nM radiopeptide, 60 min, room temperature, mean ± SD
T3 construct: BN/GRP receptor-positive MDA-MB-231, MCF7, T47D human breast cancer, and PC3 human prostate cancer lines; host or cells: MDA-MB-231, MCF7, T47D (human breast cancer), PC3 (human prostate cancer); intact cells
Method: as §1

[5] = biological target: T4, BN/GRP receptor-positive MCF7 human breast cancer cells (Homo sapiens, UniProt P30550); assay: Saturation binding assay on MCF7 cells; conditions: n = 3-5 experiments; for Bmax (apparent number of binding sites per cell): SD < 15%; for Kd: ~300,000 cells, 0.1-25 nM radiopeptide, 60 min, room temperature, mean ± SD
T4 construct: BN/GRP receptor-positive MDA-MB-231, MCF7, T47D human breast cancer, and PC3 human prostate cancer lines; host or cells: MDA-MB-231, MCF7, T47D (human breast cancer), PC3 (human prostate cancer); intact cells
Method: as §1

[6] = tested on: MDA-MB-231 tumor; assay: NanoPET/CT imaging of MDA-MB-231 tumor-bearing nude mice; assay type: in vivo; conditions: 60 min p.i.
Method: PET/CT scans were performed using a preclinical NanoPET/CT scanner (Mediso, Hungary) on MDA-MB-231 tumor-bearing ~ 8-week-ld female nude mice. Mice (19–23 g) were anesthetized prior to the imaging with a mixture of (100 μL, subcutaneous injection) ketamine and xylazine. One hour after the intravenous injection of radiolabeled BN peptide (100 μL peptide, 100–150 μCi, total peptide dose ~ 100 ng) via the tail vein into the anesthetized mouse, each mouse was placed in the camera in prone position and static image was acquired for 30 min. The acquired raw data in these imaging studies were reconstructed to visible image form using Interveiw Fusion software (Mediso, Hungary).

[7] = in vivo; assay type: in vivo, nude mice; conditions: female, nude, mouse, in vivo, total radioactivity
How it was run: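 Female mice bore subcutaneous left-thigh xenografts of ~5 million MDA-MB-231 cells in PBS, grown 4-6 weeks to 200-300 mg. Animals received 20-30 μCi of 68Ga-labelled peptide and were sacrificed at set time points; tumour and organ uptake measured by γ-counting.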

[8] = Radioactivity in Urine + bladder
[9] = Uptake in Intestines (measured without their contents)

Bmax (apparent number of binding sites per cell) [1]	Bmax (apparent number of binding sites per cell) [2]	Bmax (apparent number of binding sites per cell) [4]	Bmax (apparent number of binding sites per cell) [5]	Kd [1]	Kd [2]	Kd [4]	Kd [5]	Structure (SMILES)	Log P (octanol/water) [3]	further results
5.29 × 10^5 sites/cell	5.13 × 10^5 sites/cell	4.75 × 10^5 sites/cell	6.90 × 10^5 sites/cell	9.89 ± 1.56 nM	12.7 ± 2.94 nM	15.3 ± 3.42 nM	9.8 ± 1.64 nM	CCCC[C@H](NC(=O)[C@H](Cc1c[nH]cn1)NC(=O)[C@H](CC1CCCCC1)NC(=O)[C@@H](NC(=O)[C@H](C)NC(=O)[C@H](Cc1c[nH]c2ccccc12)NC(=O)[C@H](CCC(N)=O)NC(=O)[C@H](CS)NC(=O)CNC(=O)CNC(=O)CCCCCNC(=O)CN1CCN(CC(=O)O)CCN(CC(=O)O)CCN(CC(=O)O)CC1)C(C)C)C(=O)N[C@@H](CCSC)C(N)=O [^68Ga-DOTA-Ahx-BN Cyclen, metal not drawn] ({DOTA-Ahx}-GGCQWAV[Cha]H[Nle]M-NH2)	–	Tumor visibility in PET image under blocking condition ([6]; in the presence of 300 μg cold BN peptide): hardly detectable; Tumor visibility in PET image ([6]; ~100 ng, ~100 μCi, unblocked): clearly visible; dose excreted at 1 h [7, 8]: 64 ± 9.15%; dose excreted at 2 h [7, 8]: 70 ± 8.7%; tissue uptake at 1 h ([7]; Uptake in Blood): 0.92 ± 0.15 %ID/g; tissue uptake at 2 h ([7]; Uptake in Blood): 0.51 ± 0.07 %ID/g; tissue uptake at 1 h [7, 9]: 0.86 ± 0.12 %ID/g; tissue uptake at 2 h [7, 9]: 0.61 ± 0.06 %ID/g; tissue uptake at 1 h ([7]; Uptake in Kidneys): 4.93 ± 0.38 %ID/g; tissue uptake at 2 h ([7]; Uptake in Kidneys): 4.01 ± 0.41 %ID/g; tissue uptake at 2 h ([7]; Uptake in Lungs): 0.36 ± 0.03 %ID/g; tissue uptake at 1 h ([7]; Uptake in Muscle): 0.23 ± 0.03 %ID/g; tissue uptake at 2 h ([7]; Uptake in Muscle): 0.19 ± 0.02 %ID/g; tissue uptake at 1 h ([7]; Uptake in Pancreas): 1.65 ± 0.14 %ID/g; tissue uptake at 2 h ([7]; Uptake in Pancreas): 0.82 ± 0.1 %ID/g; tissue uptake at 1 h ([7]; Uptake in Spleen): 0.25 ± 0.02 %ID/g; tissue uptake at 2 h ([7]; Uptake in Spleen): 0.14 ± 0.01 %ID/g; tissue uptake at 1 h ([7]; Uptake in Stomach): 0.73 ± 0.13 %ID/g; tissue uptake at 2 h ([7]; Uptake in Stomach): 0.34 ± 0.05 %ID/g
4.88 × 10^5 sites/cell	5.27 × 10^5 sites/cell	4.91 × 10^5 sites/cell	6.22 × 10^5 sites/cell	10.4 ± 1.71 nM	11.6 ± 3.05 nM	14.5 ± 2.4 nM	9.32 ± 1.5 nM	CCCC[C@H](NC(=O)[C@H](Cc1c[nH]cn1)NC(=O)[C@H](CC1CCCCC1)NC(=O)[C@@H](NC(=O)[C@H](C)NC(=O)[C@H](Cc1c[nH]c2ccccc12)NC(=O)[C@H](CCC(N)=O)NC(=O)[C@H](CS)NC(=O)CNC(=O)CNC(=O)CCCCCNC(=O)CN1CCN(CC(=O)O)CCN(CC(=O)O)CCN(CC(=O)O)CC1)C(C)C)C(=O)N[C@@H](CCSC)C(N)=O [^68Ga-DOTA-Ahx-BN Tris-, metal not drawn] ({DOTA-Ahx}-GGCQWAV[Cha]H[Nle]M-NH2)	− 1.18 ± 0.06	–

Structure (SMILES)	Bmax (apparent number of binding sites per cell) [1]	Bmax (apparent number of binding sites per cell) [2]	Bmax (apparent number of binding sites per cell) [4]	Bmax (apparent number of binding sites per cell) [5]	Kd [1]	Kd [2]	Kd [4]	Kd [5]	Log P (octanol/water) [3]	further results
CCCC[C@H](NC(=O)[C@H](Cc1c[nH]cn1)NC(=O)[C@H](CC1CCCCC1)NC(=O)[C@@H](NC(=O)[C@H](C)NC(=O)[C@H](Cc1c[nH]c2ccccc12)NC(=O)[C@H](CCC(N)=O)NC(=O)[C@H](CS)NC(=O)CNC(=O)CNC(=O)c1ccc(NC(=O)CN2CCN(CC(=O)O)CCN(CC(=O)O)CCN(CC(=O)O)CC2)cc1)C(C)C)C(=O)N[C@@H](CCSC)C(N)=O [^68Ga-DOTA-Abz-BN Tris-, metal not drawn] ({DOTA-4Abz}-GGCQWAV[Cha]H[Nle]M-NH2)	5.90 × 10^5 sites/cell	5.89 × 10^5 sites/cell	1.0 × 10^5 sites/cell	4.86 × 10^5 sites/cell	–	–	–	–	− 1.04 ± 0.10	–
